These are literature values, as cited in patent US20200061095A1, “Compounds for the Treatment of Systemic Insulin Resistance Disorders and the Use Thereof” (Galectin Sciences, LLC, priority 2017, published 2020).

The test system of one series is lung fibrosis. The conditions noted are these: pulmonary administration, intra-tracheal instillation or nebulizers.
In a further series the target is Galectin 3 (Homo sapiens, UniProt P17931). Particulars: reported.

The structures appear in SMILES notation.

Chain of Galectin 3 (P17931 whole entry, species assumed): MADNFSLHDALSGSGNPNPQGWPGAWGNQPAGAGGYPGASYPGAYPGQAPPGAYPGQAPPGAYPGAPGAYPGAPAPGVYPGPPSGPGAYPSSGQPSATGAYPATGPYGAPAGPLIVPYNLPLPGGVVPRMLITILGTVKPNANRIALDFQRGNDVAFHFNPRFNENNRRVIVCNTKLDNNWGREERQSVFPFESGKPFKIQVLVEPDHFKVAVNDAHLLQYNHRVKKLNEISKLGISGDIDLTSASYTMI

With `OC[C@H]1O[C@@H](S[C@@H]2O[C@H](CO)[C@H](O)[C@H](n3cc(-c4cccc(F)c4)nn3)[C@H]2O)[C@H](O)[C@@H](n2cc(-c3cccc(F)c3)nn2)[C@H]1O` [TD-139], the “efficacy in mouse model of lung fibrosis” value in the series with lung fibrosis is on record as “effective”. The “binding to Galectin 3” value on Galectin 3 was “bind to Galectin 3”.
